For series [1] the following is noted: times more potent than doxorubicin; cited from earlier work.
In series [2] the test system is cells including adriamycin resistant tumor lines. To be noted: cited from earlier work.
For the next series, the target named is PSMA (Homo sapiens, UniProt Q04609). The experiment in a line: inhibition of the enzymatic activity of PSMA. It is filed as biochemical. As for the experimental part:
The ability of Compound 8 to inhibit the enzymatic activity of PSMA (and consequently to bind to the enzyme) was evaluated using the method described previously in Ser. No. 09/712,465 Nov. 15, 2000 Glazier, Arnold. “Selective Cellular Targeting: Multifunctional Delivery Vehicles, Multifunctional Prodrugs, Use as Neoplastic Drugs. The IC50 for Compound 8 was 8 nanomolar.

Sequence of PSMA (Q04609 whole entry, species assumed): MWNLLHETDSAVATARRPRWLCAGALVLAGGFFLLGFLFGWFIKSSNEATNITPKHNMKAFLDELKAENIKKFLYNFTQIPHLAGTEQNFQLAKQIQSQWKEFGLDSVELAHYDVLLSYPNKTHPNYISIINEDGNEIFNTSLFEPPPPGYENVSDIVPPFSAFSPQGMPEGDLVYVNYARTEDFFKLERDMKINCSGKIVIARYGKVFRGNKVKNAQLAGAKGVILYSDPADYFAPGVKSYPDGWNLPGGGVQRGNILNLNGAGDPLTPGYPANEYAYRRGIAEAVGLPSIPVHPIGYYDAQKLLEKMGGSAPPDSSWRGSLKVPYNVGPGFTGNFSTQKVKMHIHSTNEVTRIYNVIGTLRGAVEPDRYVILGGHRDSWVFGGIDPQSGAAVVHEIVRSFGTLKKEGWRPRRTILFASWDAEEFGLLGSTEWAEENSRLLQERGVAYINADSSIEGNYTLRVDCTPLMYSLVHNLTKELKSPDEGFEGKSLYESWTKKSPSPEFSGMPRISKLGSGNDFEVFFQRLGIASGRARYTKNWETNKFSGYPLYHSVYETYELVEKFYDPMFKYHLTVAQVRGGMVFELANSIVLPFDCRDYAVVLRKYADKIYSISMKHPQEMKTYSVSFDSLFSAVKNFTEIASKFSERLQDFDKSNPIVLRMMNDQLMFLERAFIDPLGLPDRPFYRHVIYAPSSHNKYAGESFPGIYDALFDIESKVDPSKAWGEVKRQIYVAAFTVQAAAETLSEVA

As to `COc1cccc2c1C(=O)c1c(O)c3c(c(O)c1C2=O)C[C@@](O)(C(=O)CO)C[C@@H]3O[C@H]1C[C@H](N2C=CCC2)[C@H](O)[C@H](C)O1` [2-pyrrolinodoxorubicin], the “potency relative to doxorubicin” value in series [1] was 500-1000 times.
For `CO[C@@H]1[C@H](O)C[C@@H](O[C@@H]2C[C@H](Oc3cc4cc5c(c(O)c4c(O)c3C)C(=O)[C@@H](O[C@H]3C[C@@H](O[C@H]4C[C@@H](O[C@H]6C[C@](C)(O)[C@@H](OC(C)=O)[C@H](C)O6)[C@H](O)[C@@H](C)O4)[C@H](O)[C@@H](C)O3)[C@H]([C@H](OC)C(=O)[C@@H](O)[C@@H](C)O)C5)O[C@H](C)[C@@H]2OC(C)=O)O[C@@H]1C` [Chromomycin A3], in series [2], the “concentrations at which cytotoxic” value is recorded as “subnanomolar concentrations”.
As to `COc1ccc(C(=O)NCCOCCOCCOCCNC(=O)CCC(NC(=O)NC(CCC(=O)O)C(=O)O)C(=O)O)cc1` (stereo not drawn) [Compound 8], the IC50 (as a rule, the concentration that gives 50% inhibition) at PSMA is 8 nM.

These data come from patent publication US20070172422A1, “Exponential pattern recognition based cellular targeting compositions, methods and anticancer applications” (priority 2001, published 2007).
